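Interpolation was linear, between the two tested concentrations surrounding the appropriate level; five concentrations were tested over 48 hours in 96-well plates. GI50 = concentration required for 50% inhibition of growth. TGI: total growth inhibition.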

Common to all, as to assay: NCI tumour cell line growth inhibition, 48 h
The test system of assay [1] is HCC-2998 colon.
For assay [2], the system named is OVCAR-4 ovarian.
Assay [3] concerns CCRF-CEM leukemia.
Assay [4] has as its system HOP-62 NSCLC.
Assay [5] relates to NCI-H226 lung.
The subject of assay [6] is SF-295 CNS.
For assay [7], the system named is U251 CNS.
The subject of assay [8] is HCT-15 colon.
The test system of assay [9] is IGROV1 ovarian.

As to `CCOC(=O)c1sc2[n+](c1C)C(=O)/C(=C/c1ccc([N+](=O)[O-])cc1)S2`, the TGI was 37.5 µM in assay [1]; above 100 µM in assay [2]; above 100 µM in assay [3]; 74 µM in assay [4]; 58.4 µM in assay [5]; 64.4 µM in assay [6]. The molecule also registered a TGI in assay [7] of 40.3 µM.

For the molecule `COc1ccc(C2SCC(=O)N2NC(=O)c2ccc(NC(C)=O)cc2)cc1` (stereo not drawn), the TGI in assay [1], in [2], in [4], in assay [8], in assay [5] and in [6] was above 100 µM in each case. Also, the TGI in assay [9] and in [7] was above 100 µM throughout.

On to `CC(=O)OC[C@@H](OC(C)=O)[C@H](OC(C)=O)[C@@H]1OC(C)(C)O[C@@H]1C1SCCCS1`, for which the TGI in assay [1], in [2], in assay [3], in assay [4], in assay [6] and in assay [7] was above 100 µM in each case.

For the molecule `COC(=O)c1cnc(Cl)cn1`, the TGI is 45.5 µM in assay [2]; above 100 µM in [3]; above 100 µM in assay [4]; 38.5 µM in assay [8]; above 100 µM in assay [5]; above 100 µM in assay [6]. Further, the TGI was 97.1 µM in assay [9] and above 100 µM in [7].

`CC(=O)OCC1OC(Oc2cc(C)c(O)cc2C/C=C(\C)CC/C=C(\C)CC(=O)CC(C)C)C(O)C(OC(C)=O)C1OC(C)=O` (stereo not drawn): the TGI was 24.5 µM in [1]; above 50 µM in [2]; 22.3 µM in assay [3]; 40 µM in assay [4]; above 50 µM in assay [8]; above 50 µM in assay [6]. The TGI is above 50 µM in assay [9] and 41.9 µM in assay [7].

`Nc1ccc(C(=O)c2cn(CCN3CCOCC3)c3ccccc23)c2ccccc12`: the TGI in assay [1] is above 100 µM; in assay [2], above 100 µM; in assay [3] it was 45.3 µM; in assay [4] it was above 100 µM; in [8] it was 43.3 µM; in assay [6] it was above 100 µM. Moreover, the results for the TGI in [9] and in [7] were 52.3 µM and above 100 µM, respectively.

Regarding `O=C1Nc2ccc(Cl)cc2/C1=C\c1c(Cl)nc2sccn12`, the TGI is above 100 µM in assay [1]; above 100 µM in assay [2]; 62.3 µM in [3]; 96.3 µM in assay [4]; above 100 µM in [8]; 25.3 µM in assay [6]. Further, the TGI in assay [9] and in assay [7] was above 100 µM in each case.

Regarding `O=c1[nH]nc(Cc2ccccc2)n1CCO`, the TGI in [1], in [2], in [8], in [5], in assay [6] and in assay [9] was above 100 µM each time. The TGI in [7] was above 100 µM.

On to `Cc1ccc(N(CC(=O)Nc2ccc(S(=O)(=O)N3CCC(N4CCCC4)CC3)cc2)S(=O)(=O)c2ccc(Cl)cc2)cc1`, for which the GI50 in [3] was 1.9 µM; in [4] it was 1.76 µM; in assay [8] it was 1.43 µM; in assay [6] it was 1.74 µM; in assay [7] it was 1.56 µM. Further, the TGI is 6.35 µM in assay [3]; 3.55 µM in [4]; 2.93 µM in [8]; 3.42 µM in [6]; 2.98 µM in [7].

For `Oc1ccc(Cl)cc1CN1CCN(Cc2cc(Cl)ccc2O)C1`, the TGI is 2.97 µM in assay [1]; 17 µM in assay [2]; above 100 µM in assay [3]; 2.79 µM in [4]; 4.66 µM in [5]; 7.73 µM in assay [6]. For the same molecule, the TGI came to 6.47 µM in assay [9] and 15 µM in assay [7].

With `O=C(N/N=C1/C(=O)c2c3ccccc3cc3cccc1c23)c1ccccc1`, the TGI was 44.2 µM in assay [2]; above 100 µM in assay [3]; 40.3 µM in assay [4]; above 100 µM in [8]; above 66.6 µM in assay [5]; 52.2 µM in [6]. Also, the TGI in [9] amounted to 85.5 µM; in assay [7], 98.3 µM.

With `CC1(C)C2CC(=O)C1(C)C(OCc1ccccc1)C2` (stereo not drawn), the TGI is above 100 µM in [1]; 92.8 µM in assay [3]; above 100 µM in [4]; above 100 µM in [8]; above 100 µM in assay [5]; above 100 µM in [6]. Besides, the TGI in assay [9] and in [7] was above 100 µM each time.

As for `Nc1nc(N)c2cc(NCc3ccc(Cl)c(Cl)c3)ccc2n1`, the GI50 is 1.16 µM in assay [1]; 1.34 µM in assay [2]; 1.63 µM in assay [4]; 0.765 µM in [8]; 1.53 µM in [5]; 1.22 µM in assay [6]. The GI50 in assay [7] is 1.12 µM. The TGI was 2.51 µM in assay [1]; 2.61 µM in assay [2]; 3.01 µM in assay [4]; 2.02 µM in assay [8]; 3.14 µM in assay [5]; 2.61 µM in [6]. In addition, the TGI in assay [7] was found to be 2.37 µM.

For the molecule `O=[N+]([O-])c1cc2c(cc1/C=N/n1c(CO)nc3ccccc31)OCO2`, the TGI in assay [2], in [3], in [4], in assay [8], in assay [5] and in assay [6] was above 100 µM in each case. Also, in [7], the TGI was above 100 µM.

Regarding `CC1=Nc2sc3c(c2C2=NCCN12)CCCC3`, the TGI in assay [1] is above 100 µM; in assay [2], above 100 µM; in assay [4], above 100 µM; in [8] it was above 100 µM; in assay [5], 31.2 µM; in [6], 98.7 µM. Moreover, the TGI is 60.7 µM in assay [9] and 70.7 µM in assay [7].

These data come from PubChem BioAssay (NCI).
